Measured values reported in patent US20140005163A1 (NOVARTIS AG, priority 2010, published 2014).
≈ marks a conversion by molar mass, not a printed value. Where two headings read alike, the source gives them in different places.

Assays:
Solubility at pH 6.8 = type: physicochemical
Method in brief: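 Following the procedure of Zhou et al. (2007), compound solubility was determined at pH 6.8.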

PI3K alpha = biological target: T1, PI3K alpha (Homo sapiens, UniProt P42336); assay: PI3K alpha kinase assay (Kinase-Glo luminescence); type: biochemical
T1 construct: p85(iSH2) fusion partner (see partner chain) (N); His tag (C); made in house; host or cells: baculovirus; Tn5 (Trichoplusia ni) or TiniPro insect cells
Method in brief: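 Read-out: Kinase-Glo luminescence of ATP left after 60 min at room temperature. Conditions: 10 nM PI3Kα (EMV B1075), 1 μM ATP, 10 μg/mL PI substrate, Tris pH 7.5 buffer with MgCl2, NaCl, CHAPS and DTT. IC50s fitted with a four-parameter logistic model.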

[1] = test system: PKB Ser473 phosphorylation in Rat1-myr-HA-p110 beta cells; assay: Reverse protein array assay, PKB Ser473 phosphorylation in Rat1-myr-p110 beta cells; type: cell-based; details: 0.5 h, pAkt Ser473, 30 minutes incubation, read-out: p-PKB IC50
Method in brief: (§1)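 Rat1 cells expressing myristoylated HA-tagged p110 alpha, beta or delta were plated for at least 20 h, then exposed to 8-step serial compound dilutions (0.2% DMSO final) for 30 min at 37 °C. Lysates were spotted at four dilutions on protein microarrays, and relative fluorescence intensity of phospho-Ser473 PKB was calculated.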

[2] = test system: PKB Ser473 phosphorylation in Rat1-myr-HA-p110 delta cells; assay: Reverse protein array assay, PKB Ser473 phosphorylation in Rat1-myr-p110 delta cells; type: cell-based; details: read-out: p-PKB IC50
Method in brief: as §1

[3] = pH 6.8, aqueous buffer, thermodynamic from solid, read-out: solubility

T1 sequence (P42336 with tags, fused parts or gaps limits assumed): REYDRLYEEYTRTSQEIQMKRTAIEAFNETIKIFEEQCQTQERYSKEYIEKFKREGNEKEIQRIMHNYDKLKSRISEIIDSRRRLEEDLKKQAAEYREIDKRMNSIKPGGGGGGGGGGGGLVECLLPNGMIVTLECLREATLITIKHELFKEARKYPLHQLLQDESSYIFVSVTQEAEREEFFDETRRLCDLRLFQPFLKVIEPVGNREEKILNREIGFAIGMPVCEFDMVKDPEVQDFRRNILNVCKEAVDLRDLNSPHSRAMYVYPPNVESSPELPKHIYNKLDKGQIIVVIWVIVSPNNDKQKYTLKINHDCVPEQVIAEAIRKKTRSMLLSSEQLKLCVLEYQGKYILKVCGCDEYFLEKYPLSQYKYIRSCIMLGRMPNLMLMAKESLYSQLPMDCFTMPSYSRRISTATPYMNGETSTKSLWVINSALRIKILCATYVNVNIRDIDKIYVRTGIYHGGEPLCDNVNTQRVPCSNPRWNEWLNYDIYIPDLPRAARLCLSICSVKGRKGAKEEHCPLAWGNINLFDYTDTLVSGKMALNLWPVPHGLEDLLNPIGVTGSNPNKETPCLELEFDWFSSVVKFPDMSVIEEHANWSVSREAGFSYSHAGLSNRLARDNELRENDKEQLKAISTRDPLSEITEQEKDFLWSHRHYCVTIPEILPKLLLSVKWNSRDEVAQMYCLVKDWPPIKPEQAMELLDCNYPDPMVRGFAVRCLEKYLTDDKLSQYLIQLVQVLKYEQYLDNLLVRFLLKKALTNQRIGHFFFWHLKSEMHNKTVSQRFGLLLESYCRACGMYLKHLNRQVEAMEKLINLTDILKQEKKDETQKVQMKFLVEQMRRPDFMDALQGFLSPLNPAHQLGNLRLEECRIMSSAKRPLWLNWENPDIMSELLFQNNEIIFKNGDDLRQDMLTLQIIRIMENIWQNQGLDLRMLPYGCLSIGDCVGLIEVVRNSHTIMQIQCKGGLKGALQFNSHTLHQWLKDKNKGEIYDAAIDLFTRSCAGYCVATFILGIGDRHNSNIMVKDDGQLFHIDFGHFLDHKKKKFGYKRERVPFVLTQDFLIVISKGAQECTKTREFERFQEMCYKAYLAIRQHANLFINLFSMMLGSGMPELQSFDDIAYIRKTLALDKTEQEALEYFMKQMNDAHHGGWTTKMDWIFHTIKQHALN

`CCOc1ccc(-c2ccc3ncc4[nH]c(=O)n(-c5cn(C)nc5C)c4c3c2)cn1` [Example 110, 1-(1,3-Dimethyl-1H-pyrazol-4-yl)-8-(6-ethoxy-pyridin-3-yl)-1,3-dihydro-imidazo[4,5-c]quinolin-2-one] gave a solubility (Solubility at pH 6.8; pH 6.8) of 2 µg/mL (≈ 4.99 µM), an IC50 (PI3K alpha) of 5 nM and an IC50 [1] of 113 nM. The IC50 [2] was 196 nM.

`CNc1ccc(-c2ccc3ncc4c(c3c2)n(-c2cn(C)nc2C)c(=O)n4C)cn1` [Example 118.2, 1-(1,3-Dimethyl-1H-pyrazol-4-yl)-3-methyl-8-(6-methylamino-pyridin-3-yl)-1,3-dihydro-imidazo[4,5-c]quinolin-2-one] showed a solubility (Solubility at pH 6.8; [3]) of 30 µg/mL (≈ 75.1 µM), an IC50 (PI3K alpha) of 11 nM and an IC50 [1] of under 5 nM. For the same compound, the IC50 [2] was 10 nM.

With `CCn1cc(-n2c(=O)n(C)c3cnc4ccc(-c5ccc(NC)nc5)cc4c32)c(C)n1` [Example 118.4, 1-(1-Ethyl-3-methyl-1H-pyrazol-4-yl)-3-methyl-8-(6-methylamino-pyridin-3-yl)-1,3-dihydro-imidazo[4,5-c]quinolin-2-one] the solubility (Solubility at pH 6.8; [3]) was 70 µg/mL (≈ 169 µM), the IC50 (PI3K alpha) was 20 nM and the IC50 [1] was under 5 nM. For the same compound, the IC50 [2] was 21 nM.

`Cc1nn(C)cc1-n1c(=O)n(C)c2cnc3ccc(-c4cncc(N(C)S(C)(=O)=O)c4)cc3c21` [Example 121, N-{5-[1-(1,3-Dimethyl-1H-pyrazol-4-yl)-3-methyl-2-oxo-2,3-dihydro-1H-imidazo[4,5-c]quinolin-8-yl]-pyridin-3-yl}-N-methyl-methanesulfonamide] showed a solubility (Solubility at pH 6.8; [3]) of 47 µg/mL (≈ 98.4 µM), an IC50 (PI3K alpha) of 19 nM and an IC50 [1] of 444 nM. It also gave an IC50 [2] of 341 nM.

`COc1ncc(-c2ccc3ncc4c(c3c2)n(-c2cn(C)nc2C)c(=O)n4C)cc1C(N)=O` [Example 125.2, 5-[1-(1,3-Dimethyl-1H-pyrazol-4-yl)-3-methyl-2-oxo-2,3-dihydro-1H-imidazo[4,5-c]quinolin-8-yl]-2-methoxy-nicotinamide] gave a solubility (Solubility at pH 6.8; pH 6.8) of 2 µg/mL (≈ 4.51 µM), an IC50 (PI3K alpha) of 50 nM and an IC50 [1] of 187 nM. It also gave an IC50 [2] of 61 nM.

With `COc1ncc(-c2ccc3ncc4c(c3c2)n(-c2cn(C)nc2C)c(=O)n4C)cc1C#N` [Example 132, 5-[1-(1,3-Dimethyl-1H-pyrazol-4-yl)-3-methyl-2-oxo-2,3-dihydro-1H-imidazo[4,5-c]quinolin-8-yl]-2-methoxy-nicotinonitrile] the solubility (Solubility at pH 6.8; [3]) was 17 µg/mL (≈ 40 µM), the IC50 (PI3K alpha) was 138 nM and the IC50 [1] was 99 nM. It also gave an IC50 [2] of 145 nM.

With `CCN(C)C(=O)Cn1cc(-n2c(=O)n(C)c3cnc4ccc(-c5ccccc5)cc4c32)c(C)n1` [Example 135, N-Ethyl-N-methyl-2-[3-methyl-4-(3-methyl-2-oxo-8-phenyl-2,3-dihydro-imidazo[4,5-c]quinolin-1-yl)-pyrazol-1-yl]-acetamide] the solubility (Solubility at pH 6.8; [3]) was 164 µg/mL (≈ 361 µM), the IC50 (PI3K alpha) was 76 nM and the IC50 [1] was 118 nM. The IC50 [2] was 363 nM.

In the case of `CCN(C)C(=O)Cn1cc(-n2c(=O)n(C)c3cnc4ccc(-c5cnc(N6CCCC6)nc5)cc4c32)c(C)n1` [Example 140.1, N-Ethyl-N-methyl-2-{3-methyl-4-[3-methyl-2-oxo-8-(2-pyrrolidin-1-yl-pyrimidin-5-yl)-2,3-dihydro-imidazo[4,5-c]quinolin-1-yl]-pyrazol-1-yl}-acetamide], the solubility (Solubility at pH 6.8; [3]) is reported as 36 µg/mL (≈ 68.5 µM), the IC50 (PI3K alpha) is reported as 168 nM and the IC50 [1] is reported as 100 nM. It also gave an IC50 [2] of 307 nM.

For `CNc1ncc(-c2ccc3ncc4c(c3c2)n(-c2c(C)nn(C)c2C)c(=O)n4C)cc1F` [Example 141.1, 8-(5-Fluoro-6-methylamino-pyridin-3-yl)-3-methyl-1-(1,3,5-trimethyl-1H-pyrazol-4-yl)-1,3-dihydro-imidazo[4,5-c]quinolin-2-one], the solubility (Solubility at pH 6.8; [3]) was over 431 µg/mL, the IC50 (PI3K alpha) was 817 nM and the IC50 [1] was 162 nM. The IC50 [2] was 403 nM.

For `CNc1ncc(-c2ccc3ncc4c(c3c2)n(-c2cn(C)nc2C)c(=O)n4C)cc1F` [Example 141.2, 1-(1,3-Dimethyl-1H-pyrazol-4-yl)-8-(5-fluoro-6-methylamino-pyridin-3-yl)-3-methyl-1,3-dihydro-imidazo[4,5-c]quinolin-2-one], the solubility (Solubility at pH 6.8; pH 6.8) was 2 µg/mL (≈ 4.79 µM), the IC50 (PI3K alpha) was 14 nM and the IC50 [1] was under 5 nM. It also gave an IC50 [2] of 21 nM.
